Source: patent US20050112573A1, “Method of detecting toxic substance” (priority 2001, published 2005)

Tested on: yeast genes (level of expressed mRNA)
Assay: DNA chip analysis of expressed mRNA of yeast genes after 2 h culture with a toxic chemical substance
Type: cell-based, Saccharomyces cerevisiae S288C
Protocol: Yeast (Saccharomyces cerevtisiae S288C (α SUC2mal mel gap2 CUP1)) were cultured at 25° C. on YPD medium (yeast extract 1%, polypepton 2%, glucose 2%). One of toxic chemical substances was added to the cell at logarithmic growth phase, and the cell was further cultured for two hours. Cell was cultured without any chemical substance in the same condition, and was used as control. Concentrations of the chemical substances were defined to inhibit the growth of the yeast but not lead to death.
After the completion of cultivation, the culture was centrifuged to collect the cells. To the cells, sodium acetate buffer (50 mM sodium acetate, 10 mM EDTA, 1% SDS) was added, and the mixture was shaken at 65° C. for five minutes, followed by returning to room temperature, and obtaining the supernatant, which procedure was repeated two times. To the supernatant, ½ amount of a solution of phenol/chloroform was added, and the mixture was centrifuged to give a supernatant, which was added with an equal amount of chloroform, and the mixture was centrifuged to give a supernatant. To the supernatant, an equal amount of isopropanol containing 0.3 M sodium acetate was added, and the mixture was allowed to stand at room temperature for 30 minutes, after which the mixture was centrifuged to give a sediment of the whole RNAs. Seventy % ethanol was added to the sediment, and the mixture was again centrifuged to give a sediment, which was then dried and dissolved in water. mRNA was isolated from the whole RNAs as followings. In view of the fact that a poly A chain is attached to the 3′ terminus of mRNA, a polynucleotide having a poly T structure which was immobilized on the surface of latex beads was used to trap the mRNA, and then the mRNA was washed and eluted with spine column (Oligotex-dT30<Super>mRNA Purification Kit, Takara). Reverse transcription of the mRNA was conducted with a reverse transcriptase (Super Script II Reverse Transcriptase; catalogue No. 18064-014, GibcoBRL) using fluorescence-labeled nucleotides to give cDNAs that were introduced with Cy3-dUTP or Cy5-dUTP during the reverse transcription.
The labeled cDNAs were dissolved in TE buffer (10 mM Tris-HCl/1 mM EDTA, pH8.0), and the solution was dropped on the DNA chip containing the whole genes of yeast (DNA Chip Research Inc. Japan) so that the cDNAs were hybridized on the DNA chip at 65° C. for over 12 hours. The fluoresces intensity of the DNA chip was read with a scanner, and the ratio relative to the fluorescence intensity resulting from the absence of chemical substance was estimated as the following, which is shown in Tables 1 to 9: [formula]
In the Tables, “Intensity” indicated in the rightmost column is a value of the level of expressed mRNA of each gene in control cells as divided by the average level of the expressions of the whole genes.

Substance: CdCl2 [(2)]
- The level of expressed mRNA in the presence of chemical substance/ (yeast gene YNL074C, ratio to control without chemical substance, 2 h culture): 1.3
- The level of expressed mRNA in the presence of chemical substance/ (yeast gene YNL092W, ratio to control without chemical substance, 2 h culture): 1.4
- The level of expressed mRNA in the presence of chemical substance/The level of expressed mRNA in the absence of chemical substance (yeast gene YNL093W): 6.4
- The level of expressed mRNA in the presence of chemical substance/ (yeast gene YNL115C, ratio to control without chemical substance, 2 h culture): 1.8
- The level of expressed mRNA in the presence of chemical substance/ (yeast gene YNL156C, ratio to control without chemical substance, 2 h culture): 1.2
- The level of expressed mRNA in the presence of chemical substance/ (yeast gene YNL234W, ratio to control without chemical substance, 2 h culture): 1.1
- The level of expressed mRNA in the presence of chemical substance/ (yeast gene YNL281W, ratio to control without chemical): 1.3
- The level of expressed mRNA in the presence of chemical substance/ (yeast gene YNL305C, ratio to control without chemical): 2.2
- The level of expressed mRNA in the presence of chemical substance/The level of expressed mRNA in the absence of chemical substance (yeast gene YNL333W): 1.4
- The level of expressed mRNA in the presence of chemical substance/The level of expressed mRNA in the absence of chemical substance (yeast gene YNR010W): 1.2
- The level of expressed mRNA in the presence of chemical substance/ (yeast gene YNR068C, ratio to control without chemical): 1.5
- The level of expressed mRNA in the presence of chemical substance/The level of expressed mRNA in the absence of chemical substance (yeast gene YNR069C): 1.3
- The level of expressed mRNA in the presence of chemical substance/in the absence of chemical substance (yeast gene YNR072W): 1.5
- The level of expressed mRNA in the presence of chemical substance/The level of expressed mRNA in the absence of chemical substance (yeast gene YOL013C): 1.0
- The level of expressed mRNA in the presence of chemical substance/ (yeast gene YOL032W, ratio to control without chemical): 0.8
- The level of expressed mRNA in the presence of chemical substance/ (yeast gene YOL036W, ratio to control without chemical): 0.9
- The level of expressed mRNA in the presence of chemical substance/ (yeast gene YOL047C, ratio to control without chemical): 1.1
- The level of expressed mRNA in the presence of chemical substance/ (yeast gene YOL071W, ratio to control without chemical): 2.0
- The level of expressed mRNA in the presence of chemical substance/ (yeast gene YOL082W, ratio to control without chemical): 1.6
- The level of expressed mRNA in the presence of chemical substance/ (yeast gene YOL083W, ratio to control without chemical): 2.3
- The level of expressed mRNA in the presence of chemical substance/in the absence of chemical substance (yeast gene YOL096C): 1.0
- The level of expressed mRNA in the presence of chemical substance/ (yeast gene YOL117W, ratio to control without chemical): 1.1
- The level of expressed mRNA in the presence of chemical substance/ (yeast gene YOL131W, ratio to control without chemical): 1.5
- The level of expressed mRNA in the presence of chemical substance/ (yeast gene YOL150C, ratio to control without chemical substance, 2 h culture): 3.7
- The level of expressed mRNA in the presence of chemical substance/ (yeast gene YOL162W, ratio to control without chemical): 6.9
- The level of expressed mRNA in the presence of chemical substance/The level of expressed mRNA in the absence of chemical substance (yeast gene YOL164W): 4.4
- The level of expressed mRNA in the presence of chemical substance/ (yeast gene YOR019W, ratio to control without chemical): 1.2
- The level of expressed mRNA in the presence of chemical substance/The level of expressed mRNA in the absence of chemical substance (yeast gene YOR036W): 0.9
- The level of expressed mRNA in the presence of chemical substance/The level of expressed mRNA in the absence of chemical substance (yeast gene YOR117W): 1.3
- The level of expressed mRNA in the presence of chemical substance/The level of expressed mRNA in the absence of chemical substance (yeast gene YOR124C): 1.1
- The level of expressed mRNA in the presence of chemical substance/The level of expressed mRNA in the absence of chemical substance (yeast gene YOR132W): 1.6
- The level of expressed mRNA in the presence of chemical substance/The level of expressed mRNA in the absence of chemical substance (yeast gene YOR157C): 1.3
- The level of expressed mRNA in the presence of chemical substance/in the absence of chemical substance (yeast gene YOR180C): 1.1
- The level of expressed mRNA in the presence of chemical substance/The level of expressed mRNA in the absence of chemical substance (yeast gene YOR181W): 0.9
- The level of expressed mRNA in the presence of chemical substance/The level of expressed mRNA in the absence of chemical substance (yeast gene YOR185C): 1.3
- The level of expressed mRNA in the presence of chemical substance/ (yeast gene YOR197W, ratio to control without chemical): 1.0
- The level of expressed mRNA in the presence of chemical substance/The level of expressed mRNA in the absence of chemical substance (yeast gene YOR198C): 0.7
- The level of expressed mRNA in the presence of chemical substance/The level of expressed mRNA in the absence of chemical substance (yeast gene YOR259C): 1.1
- The level of expressed mRNA in the presence of chemical substance/The level of expressed mRNA in the absence of chemical substance (yeast gene YOR261C): 1.4
- The level of expressed mRNA in the presence of chemical substance/The level of expressed mRNA in the absence of chemical substance (yeast gene YOR288C): 1.3
- The level of expressed mRNA in the presence of chemical substance/The level of expressed mRNA in the absence of chemical substance (yeast gene YOR355W): 0.6
- The level of expressed mRNA in the presence of chemical substance/in the absence of chemical substance (yeast gene YOR363C): 2.0
- The level of expressed mRNA in the presence of chemical substance/The level of expressed mRNA in the absence of chemical substance (yeast gene YOR383C): 4.3
- The level of expressed mRNA in the presence of chemical substance/ (yeast gene YPL087W, ratio to control without chemical): 5.1
- The level of expressed mRNA in the presence of chemical substance/The level of expressed mRNA in the absence of chemical substance (yeast gene YPL089C): 1.0
- The level of expressed mRNA in the presence of chemical substance/The level of expressed mRNA in the absence of chemical substance (yeast gene YPL109C): 2.5
- The level of expressed mRNA in the presence of chemical substance/The level of expressed mRNA in the absence of chemical substance (yeast gene YPL149W): 1.5
- The level of expressed mRNA in the presence of chemical substance/The level of expressed mRNA in the absence of chemical substance (yeast gene YPL154C): 3.3
- The level of expressed mRNA in the presence of chemical substance/ (yeast gene YPL196W, ratio to control without chemical): 1.6
- The level of expressed mRNA in the presence of chemical substance/ (yeast gene YPL206C, ratio to control without chemical): 2.9
- The level of expressed mRNA in the presence of chemical substance/ (yeast gene YPL222W, ratio to control without chemical): 3.5
- The level of expressed mRNA in the presence of chemical substance/ (yeast gene YPR023C, ratio to control without chemical): 1.4
- The level of expressed mRNA in the presence of chemical substance/The level of expressed mRNA in the absence of chemical substance (yeast gene YPR103W): 1.1
- The level of expressed mRNA in the presence of chemical substance/The level of expressed mRNA in the absence of chemical substance (yeast gene YPR108W): 1.0
- The level of expressed mRNA in the presence of chemical substance/ (yeast gene YPR151C, ratio to control without chemical): 2.0
- The level of expressed mRNA in the presence of chemical substance/in the absence of chemical substance (yeast gene YPR184W): 1.4
